The series has as its system CCRIS mutagenicity, Ames/micronucleus/aberration tests. Put plainly: CCRIS mutagenicity studies.
The mark [1] stands for this setting: Test System: AMES SALMONELLA TYPHIMURIUM, Strain/Indicator: TA98, Metabolic Activation: NONE, Method: PREINCUBATION
[2] abbreviates: Test System: AMES SALMONELLA TYPHIMURIUM, Strain/Indicator: TA100, Metabolic Activation: NONE, Method: PREINCUBATION
Setting [3] is: Test System: AMES SALMONELLA TYPHIMURIUM, Strain/Indicator: TA1535, Metabolic Activation: NONE, Method: PREINCUBATION
Where [4] appears, read: Test System: AMES SALMONELLA TYPHIMURIUM, Strain/Indicator: TA1537, Metabolic Activation: NONE, Method: PREINCUBATION
Where [5] appears, read: Test System: MOUSE LYMPHOMA, Strain/Indicator: L5178Y (TK+/TK-), Metabolic Activation: NONE, Method: SUSPENSION/PLATE.
Where [6] appears, read: Test System: AMES SALMONELLA TYPHIMURIUM, Strain/Indicator: TA100, Metabolic Activation: NONE, Method: STANDARD PLATE.
Where [7] appears, read: Test System: AMES SALMONELLA TYPHIMURIUM, Strain/Indicator: TA1535, Metabolic Activation: NONE, Method: STANDARD PLATE.

Calls of active or inactive are those of the source. No rule for the calls is given here.

Consider `CCCCOC(=O)c1ccccc1C(=O)OCc1ccccc1`, for which the mutagenic call was “inactive; negative” (End Point: IN VITRO CHROMOSOMAL ABERRATIONS, Test System: CHINESE HAMSTER OVARY CELLS, Metabolic Activation: NONE); “inactive; negative” (End Point: IN VITRO CHROMOSOMAL ABERRATIONS, Test System: CHINESE HAMSTER OVARY CELLS, Metabolic Activation: RAT, LIVER, S-9, AROCLOR 1254); “inactive; negative” (Test System: AMES SALMONELLA TYPHIMURIUM, Strain/Indicator: TA98, Metabolic Activation: HAMSTER, LIVER, S-9, AROCLOR 1254 (10%), Method: PREINCUBATION); “inactive; negative” under setting [1]; “inactive; negative” (Test System: AMES SALMONELLA TYPHIMURIUM, Strain/Indicator: TA98, Metabolic Activation: RAT, LIVER, S-9, AROCLOR 1254 (10%), Method: PREINCUBATION); “inactive; negative” (Test System: AMES SALMONELLA TYPHIMURIUM, Strain/Indicator: TA100, Metabolic Activation: HAMSTER, LIVER, S-9, AROCLOR 1254 (10%), Method: PREINCUBATION). Also, the mutagenic call was “inactive; negative” under setting [2]; “inactive; negative” (Test System: AMES SALMONELLA TYPHIMURIUM, Strain/Indicator: TA100, Metabolic Activation: RAT, LIVER, S-9, AROCLOR 1254 (10%), Method: PREINCUBATION); “inactive; negative” (Test System: AMES SALMONELLA TYPHIMURIUM, Strain/Indicator: TA1535, Metabolic Activation: HAMSTER, LIVER, S-9, AROCLOR 1254 (10%), Method: PREINCUBATION); “inactive; negative” under setting [3]; “inactive; negative” (Test System: AMES SALMONELLA TYPHIMURIUM, Strain/Indicator: TA1535, Metabolic Activation: RAT, LIVER, S-9, AROCLOR 1254 (10%), Method: PREINCUBATION); “inactive; negative” (Test System: AMES SALMONELLA TYPHIMURIUM, Strain/Indicator: TA1537, Metabolic Activation: HAMSTER, LIVER, S-9, AROCLOR 1254 (10%), Method: PREINCUBATION). Besides, the mutagenic call runs as follows: under setting [4], “inactive; negative”; (Test System: AMES SALMONELLA TYPHIMURIUM, Strain/Indicator: TA1537, Metabolic Activation: RAT, LIVER, S-9, AROCLOR 1254 (10%), Method: PREINCUBATION) “inactive; negative”; under setting [5], “inactive; negative”; (Test System: MOUSE LYMPHOMA, Strain/Indicator: L5178Y (TK+/TK-), Metabolic Activation: RAT LIVER S-9, Method: SUSPENSION/PLATE) “active; positive”; (Test System: MOUSE LYMPHOMA, Strain/Indicator: L5178Y (TK+/TK-), Metabolic Activation: RAT, LIVER, S-9, AROCLOR 1254, Method: SUSPENSION/PLATE) “inactive; negative”.
`Nc1ccn([C@@H]2O[C@H](COP(=O)(O)O)[C@@H](O)[C@H]2O)c(=O)n1`: the mutagenic call is, setting by setting: (Test System: AMES SALMONELLA TYPHIMURIUM, Strain/Indicator: TA97, Metabolic Activation: NONE, Method: PREINCUBATION) “inactive; negative”; (Test System: AMES SALMONELLA TYPHIMURIUM, Strain/Indicator: TA97, Metabolic Activation: RAT, LIVER, S-9, AROCLOR 1254, Method: PREINCUBATION) “inactive; negative”; (Test System: AMES SALMONELLA TYPHIMURIUM, Strain/Indicator: TA102, Metabolic Activation: NONE, Method: PREINCUBATION) “inactive; negative”; (Test System: AMES SALMONELLA TYPHIMURIUM, Strain/Indicator: TA102, Metabolic Activation: RAT, LIVER, S-9, AROCLOR 1254, Method: PREINCUBATION) “inactive; negative”.
As for `O=S(=O)(O)c1ccc2cc(O)c(S(=O)(=O)O)cc2c1`, the mutagenic call by setting is: under setting [1], “inactive; negative”; (Test System: AMES SALMONELLA TYPHIMURIUM, Strain/Indicator: TA98, Metabolic Activation: RAT, LIVER, S-9, PHENOBARBITAL, Method: PREINCUBATION) “inactive; negative”; under setting [2], “inactive; negative”; (Test System: AMES SALMONELLA TYPHIMURIUM, Strain/Indicator: TA100, Metabolic Activation: RAT, LIVER, S-9, PHENOBARBITAL, Method: PREINCUBATION) “inactive; negative”.
As to `O=[N+]([O-])c1ccc(OC2CO2)cc1` (centres undefined), the mutagenic call was “active; positive” under setting [6] and “active; positive” under setting [7].
For `C1CC[C@H]2O[C@H]2C1`, the mutagenic call runs as follows: (Test System: AMES SALMONELLA TYPHIMURIUM, Strain/Indicator: TA98, Metabolic Activation: HAMSTER, LIVER, S-9, AROCLOR 1254, Method: STANDARD PLATE) “active; positive”; under setting [1], “inactive; negative”; (Test System: AMES SALMONELLA TYPHIMURIUM, Strain/Indicator: TA98, Metabolic Activation: RAT LIVER S-9, PHENOBARBITAL AND BETA-NAPHTHOFLAVONE, Method: PREINCUBATION) “inactive; negative”; (Test System: AMES SALMONELLA TYPHIMURIUM, Strain/Indicator: TA98, Metabolic Activation: RAT, LIVER, S-9, AROCLOR 1254, Method: STANDARD PLATE) “active; positive”; (Test System: AMES SALMONELLA TYPHIMURIUM, Strain/Indicator: TA100, Metabolic Activation: HAMSTER, LIVER, S-9, AROCLOR 1254, Method: STANDARD PLATE) “active; positive”; under setting [2], “active; positive”. Further, the mutagenic call runs as follows: under setting [6], “active; positive”; (Test System: AMES SALMONELLA TYPHIMURIUM, Strain/Indicator: TA100, Metabolic Activation: RAT LIVER S-9, PHENOBARBITAL AND BETA-NAPHTHOFLAVONE, Method: PREINCUBATION) “active; positive”; (Test System: AMES SALMONELLA TYPHIMURIUM, Strain/Indicator: TA100, Metabolic Activation: RAT, LIVER, S-9, AROCLOR 1254, Method: STANDARD PLATE) “active; positive”; under setting [3], “active; positive”; under setting [7], “active; positive”; (Test System: AMES SALMONELLA TYPHIMURIUM, Strain/Indicator: TA1535, Metabolic Activation: RAT LIVER S-9, PHENOBARBITAL AND BETA-NAPHTHOFLAVONE, Method: PREINCUBATION) “active; positive”. In addition, the mutagenic call runs as follows: under setting [4], “inactive; negative”; (Test System: AMES SALMONELLA TYPHIMURIUM, Strain/Indicator: TA1537, Metabolic Activation: RAT LIVER S-9, PHENOBARBITAL AND BETA-NAPHTHOFLAVONE, Method: PREINCUBATION) “inactive; negative”; (Test System: AMES SALMONELLA TYPHIMURIUM, Strain/Indicator: TA1538, Metabolic Activation: NONE, Method: PREINCUBATION) “inactive; negative”; (Test System: AMES SALMONELLA TYPHIMURIUM, Strain/Indicator: TA1538, Metabolic Activation: RAT LIVER S-9, PHENOBARBITAL AND BETA-NAPHTHOFLAVONE, Method: PREINCUBATION) “inactive; negative”; (Test System: E. COLI, Strain/Indicator: WP2UVRA, Metabolic Activation: NONE, Method: PREINCUBATION) “inactive; negative”; (Test System: E. COLI, Strain/Indicator: WP2UVRA, Metabolic Activation: RAT LIVER S-9, PHENOBARBITAL AND BETA-NAPHTHOFLAVONE, Method: PREINCUBATION) “active; positive”. The mutagenic call was “active; positive. reevaluation of results: positive” under setting [5] and “active; positive” (Test System: Mouse lymphoma, Strain/Indicator: L5178Y (tk+/tk-), Metabolic Activation: Rat, Liver, S-9, Aroclor 1254, Method: Suspension/plate).
In the case of `N[C@@H](CCS/C(Cl)=C/Cl)C(=O)O`, the mutagenic call is, setting by setting: (Test System: AMES SALMONELLA TYPHIMURIUM, Strain/Indicator: TA2638, Metabolic Activation: NONE, Method: PREINCUBATION) “inactive; negative”; (Test System: AMES SALMONELLA TYPHIMURIUM, Strain/Indicator: TA2638, Metabolic Activation: RAT, KIDNEY, CYTOSOL, Method: PREINCUBATION) “active; positive”.

The values above are taken from PubChem BioAssay AID1259407 (Chemical Carcinogenesis Research Information System (CCRIS), 2018).
